The first test deals with recombinant NL4-3 virus (Renilla luciferase in nef, Gag P373S; NLRluc) in MT-2 cells. Nature of the test: whole plant or invertebrate. The test is classed as cell-based, HIV. As to conditions: Renilla, NL43, luciferase activity in cells infected for 4-5 days with NLRluc recombinants, serial dilutions of inhibitor; class symbols (key in Table 1); read-out: EC50. A digest of the protocol:
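MT-2 cells in RPMI 1640 with 10% heat-inactivated FBS were infected with the reporter virus, made by transfecting the proviral clone into 293T cells, and cultured 4-5 days with serial inhibitor dilutions. Antiviral activity was quantified from Renilla luciferase activity measured in lysed cells.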
What is called EC50 is the concentration giving half of the maximal effect. Consider `C=C(C)[C@@H]1CC[C@]2(NC(=O)C(=O)O)CC[C@]3(C)[C@H](CC[C@@H]4[C@@]5(C)CC=C(c6ccc(C(=O)O)cc6)C(C)(C)[C@@H]5CC[C@]43C)[C@@H]12` [Example 130-1, 4-((1R,3aS,5aR,5bR,7aR,11aS,11bR,13aR,13bR)-3a-(carboxyformamido)-5a,5b,8,8,11a-pentamethyl-1-(prop-1-en-2-yl)-2,3,3a,4,5,5a,5b,6,7,7a,8,11,11a,11b,12,13,13a,13b-octadecahydro-1H-cyclopenta[a]chrysen-9-yl)benzoic acid], for which the EC50 was above 100 nM.

Turning to `C=C(C)[C@@H]1CC[C@]2(NC(=O)C3(NC(=O)OC(C)(C)C)CC3)CC[C@]3(C)[C@H](CC[C@@H]4[C@@]5(C)CC=C(c6ccc(C(=O)O)cc6)C(C)(C)[C@@H]5CC[C@]43C)[C@@H]12` [Example 130-2, 4-((1R,3aS,5aR,5bR,7aR,11aS,11bR,13aR,13bR)-3a-(1-(tert-butoxycarbonylamino)cyclopropanecarboxamido)-5a,5b,8,8,11a-pentamethyl-1-(prop-1-en-2-yl)-2,3,3a,4,5,5a,5b,6,7,7a,8,11,11a,11b,12,13,13a,13b-octadecahydro-1H-cyclopenta[a]chrysen-9-yl)benzoic acid], the EC50 is below 100 nM.

As for `C=C(C)[C@@H]1CC[C@]2(NC(=O)[C@@H]3C[C@H](NC(=O)OCc4ccccc4)C3(C)C)CC[C@]3(C)[C@H](CC[C@@H]4[C@@]5(C)CC=C(c6ccc(C(=O)O)cc6)C(C)(C)[C@@H]5CC[C@]43C)[C@@H]12` [Example 130-3, 4-((1R,3aS,5aR,5bR,7aR,11aS,11bR,13aR,13bR)-3a-((1R,3S)-3-(((benzyloxy)carbonyl)amino)-2,2-dimethylcyclobutanecarboxamido)-5a,5b,8,8,11a-pentamethyl-1-(prop-1-en-2-yl)-2,3,3a,4,5,5a,5b,6,7,7a,8,11,11a,11b,12,13,13a,13b-octadecahydro-1H-cyclopenta[a]chrysen-9-yl)benzoic acid], the EC50 is below 100 nM.

For `C=C(C)[C@@H]1CC[C@]2(NS(=O)(=O)Cc3ccccn3)CC[C@]3(C)[C@H](CC[C@@H]4[C@@]5(C)CC=C(c6ccc(C(=O)O)cc6)C(C)(C)[C@@H]5CC[C@]43C)[C@@H]12` [Example 131, 4-((1R,3aS,5aR,5bR,7aR,11aS,11bR,13aR,13bR)-5a,5b,8,8,11a-pentamethyl-1-(prop-1-en-2-yl)-3a-(pyridin-2-ylmethylsulfonamido)-2,3,3a,4,5,5a,5b,6,7,7a,8,11,11a,11b,12,13,13a,13b-octadecahydro-1H-cyclopenta[a]chrysen-9-yl)benzoic acid], the EC50 was below 100 nM.

Consider `C=C(C)[C@@H]1CC[C@]2(NCc3ccnc(F)c3)CC[C@]3(C)[C@H](CC[C@@H]4[C@@]5(C)CC=C(c6ccc(C(=O)O)cc6)C(C)(C)[C@@H]5CC[C@]43C)[C@@H]12` [Example 132, 4-((1R,3aS,5aR,5bR,7aR,11aS,11bR,13aR,13bR)-3a-((2-fluoropyridin-4-yl)methylamino)-5a,5b,8,8,11a-pentamethyl-1-(prop-1-en-2-yl)-2,3,3a,4,5,5a,5b,6,7,7a,8,11,11a,11b,12,13,13a,13b-octadecahydro-1H-cyclopenta[a]chrysen-9-yl)benzoic acid], for which the 50% effective concentration (EC50) was below 100 nM.

As for `C=C(C)[C@@H]1CC[C@]2(NCCS(=O)(=O)CCO)CC[C@]3(C)[C@H](CC[C@@H]4[C@@]5(C)CC=C(c6ccc(C(=O)O)cc6)C(C)(C)[C@@H]5CC[C@]43C)[C@@H]12` [Example 135, 4-((1R,3aS,5aR,5bR,7aR,11aS,11bR,13aR,13bR)-3a-(2-(2-hydroxyethylsulfonyl)ethylamino)-5a,5b,8,8,11a-pentamethyl-1-(prop-1-en-2-yl)-2,3,3a,4,5,5a,5b,6,7,7a,8,11,11a,11b,12,13,13a,13b-octadecahydro-1H-cyclopenta[a]chrysen-9-yl)benzoic acid], the EC50 is below 100 nM.

On to `C=C(C)[C@@H]1CC[C@]2(NCCS(C)(=O)=O)CC[C@]3(C)[C@H](CC[C@@H]4[C@@]5(C)CC=C(c6ccc(C(=O)O)cc6)C(C)(C)[C@@H]5CC[C@]43C)[C@@H]12` [Example 136, 4-((1R,3aS,5aR,5bR,7aR,11aS,11bR,13aR,13bR)-5a,5b,8,8,11a-pentamethyl-3a-(2-(methylsulfonyl)ethylamino)-1-(prop-1-en-2-yl)-2,3,3a,4,5,5a,5b,6,7,7a,8,11,11a,11b,12,13,13a,13b-octadecahydro-1H-cyclopenta[a]chrysen-9-yl)benzoic acid], for which the EC50 was below 100 nM.

`C=C(C)[C@@H]1CC[C@]2(NCCN3CCS(=O)(=O)CC3)CC[C@]3(C)[C@H](CC[C@@H]4[C@@]5(C)CC=C(c6ccc(C(=O)O)cc6)C(C)(C)[C@@H]5CC[C@]43C)[C@@H]12` [Example 137, 4-((1R,3aS,5aR,5bR,7aR,11aS,11bR,13aR,13bR)-3a-((2-(1,1-dioxido-4-thiomorpholinyl)ethyl)amino)-1-isopropenyl-5a,5b,8,8,11a-pentamethyl-2,3,3a,4,5,5a,5b,6,7,7a,8,11,11a,11b,12,13,13a,13b-octadecahydro-1H-cyclopenta[a]chrysen-9-yl)benzoic acid]: the EC50 is below 100 nM.

As for `C=C(C)[C@@H]1CC[C@]2(NCCNC(=O)OC(C)(C)C)CC[C@]3(C)[C@H](CC[C@@H]4[C@@]5(C)CC=C(c6ccc(C(=O)O)cc6)C(C)(C)[C@@H]5CC[C@]43C)[C@@H]12` [Example 138, 4-((1R,3aS,5aR,5bR,7aR,11aS,11bR,13aR,13bR)-3a-(2-(tert-butoxycarbonylamino)ethylamino)-5a,5b,8,8,11a-pentamethyl-1-(prop-1-en-2-yl)-2,3,3a,4,5,5a,5b,6,7,7a,8,11,11a,11b,12,13,13a,13b-octadecahydro-1H-cyclopenta[a]chrysen-9-yl)benzoic acid], the EC50 was below 100 nM.

For `C=C(C)[C@@H]1CC[C@]2(NCCN)CC[C@]3(C)[C@H](CC[C@@H]4[C@@]5(C)CC=C(c6ccc(C(=O)O)cc6)C(C)(C)[C@@H]5CC[C@]43C)[C@@H]12` [Example 139, 4-((1R,3aS,5aR,5bR,7aR,11aS,11bR,13aR,13bR)-3a-(2-aminoethylamino)-5a,5b,8,8,11a-pentamethyl-1-(prop-1-en-2-yl)-2,3,3a,4,5,5a,5b,6,7,7a,8,11,11a,11b,12,13,13a,13b-octadecahydro-1H-cyclopenta[a]chrysen-9-yl)benzoic acid], the EC50 was below 100 nM.

As for `C=C(C)[C@@H]1CC[C@]2(NCCN(CCC(=O)O)CCC(=O)O)CC[C@]3(C)[C@H](CC[C@@H]4[C@@]5(C)CC=C(c6ccc(C(=O)O)cc6)C(C)(C)[C@@H]5CC[C@]43C)[C@@H]12` [Example 141, 3,3′-(2-((1R,3aS,5aR,5bR,7aR,11aS,11bR,13aR,13bR)-9-(4-carboxyphenyl)-5a,5b,8,8,11a-pentamethyl-1-(prop-1-en-2-yl)-2,3,3a,4,5,5a,5b,6,7,7a,8,11,11a,11b,12,13,13a,13b-octadecahydro-1H-cyclopenta[a]chrysen-3a-ylamino)ethylazanediyl)dipropanoic acid], the EC50 was below 100 nM.

Turning to `C=C(C)[C@@H]1CC[C@]2(NCCNCCC(=O)N(C)C)CC[C@]3(C)[C@H](CC[C@@H]4[C@@]5(C)CC=C(c6ccc(C(=O)O)cc6)C(C)(C)[C@@H]5CC[C@]43C)[C@@H]12` [Example 142, 4-((1R,3aS,5aR,5bR,7aR,11aS,11bR,13aR,13bR)-3a-(2-(3-(dimethylamino)-3-oxopropylamino)ethylamino)-5a,5b,8,8,11a-pentamethyl-1-(prop-1-en-2-yl)-2,3,3a,4,5,5a,5b,6,7,7a,8,11,11a,11b,12,13,13a,13b-octadecahydro-1H-cyclopenta[a]chrysen-9-yl)benzoic acid], the EC50 was below 100 nM.

Still in this test, the particulars now being: Renilla, NL43, luciferase activity in cells infected for 4-5 days with NLRluc recombinants, serial dilutions of inhibitor; numeric values; read-out: EC50.
`C=C(C)[C@@H]1CC[C@]2(NCc3ccc(F)cn3)CC[C@]3(C)[C@H](CC[C@@H]4[C@@]5(C)CC=C(c6ccc(C(=O)O)cc6)C(C)(C)[C@@H]5CC[C@]43C)[C@@H]12` [Example 133, 4-((1R,3aS,5aR,5bR,7aR,11aS,11bR,13aR,13bR)-3a-((5-fluoropyridin-2-yl)methylamino)-5a,5b,8,8,11a-pentamethyl-1-(prop-1-en-2-yl)-2,3,3a,4,5,5a,5b,6,7,7a,8,11,11a,11b,12,13,13a,13b-octadecahydro-1H-cyclopenta[a]chrysen-9-yl)benzoic acid]: the EC50 is 30 nM.

As for `C=C(C)[C@@H]1CC[C@]2(NCc3ncccc3C(F)(F)F)CC[C@]3(C)[C@H](CC[C@@H]4[C@@]5(C)CC=C(c6ccc(C(=O)O)cc6)C(C)(C)[C@@H]5CC[C@]43C)[C@@H]12` [Example 134, 4-((1R,3aS,5aR,5bR,7aR,11aS,11bR,13aR,13bR)-5a,5b,8,8,11a-pentamethyl-1-(prop-1-en-2-yl)-3a-((3-(trifluoromethyl)pyridin-2-yl)methylamino)-2,3,3a,4,5,5a,5b,6,7,7a,8,11,11a,11b,12,13,13a,13b-octadecahydro-1H-cyclopenta[a]chrysen-9-yl)benzoic acid], the EC50 is 100 nM.

Take `C=C(C)[C@@H]1CC[C@]2(NCCNCCC(=O)O)CC[C@]3(C)[C@H](CC[C@@H]4[C@@]5(C)CC=C(c6ccc(C(=O)O)cc6)C(C)(C)[C@@H]5CC[C@]43C)[C@@H]12` [Example 140, 4-((1R,3aS,5aR,5bR,7aR,11aS,11bR,13aR,13bR)-3a-(2-(2-carboxyethylamino)ethylamino)-5a,5b,8,8,11a-pentamethyl-1-(prop-1-en-2-yl)-2,3,3a,4,5,5a,5b,6,7,7a,8,11,11a,11b,12,13,13a,13b-octadecahydro-1H-cyclopenta[a]chrysen-9-yl)benzoic acid]: the EC50 came out at 9 nM.
